Assay results reported in patent US20100086599A1, “ORAL MODIFIED RELEASE FORMULATIONS” (KAIROSMED GMBH, priority 2006, published 2010).
“Also recorded” adds a separate entry of the source. Like-named read-outs stand apart in the source and are kept apart here.

What was measured:
[1] = cited from earlier work
[2] = low pH-values; cited from earlier work
SHBG = molecular target: T1, SHBG (Homo sapiens, UniProt P04278); details: cited from earlier work
T1 sequence (P04278 30-402): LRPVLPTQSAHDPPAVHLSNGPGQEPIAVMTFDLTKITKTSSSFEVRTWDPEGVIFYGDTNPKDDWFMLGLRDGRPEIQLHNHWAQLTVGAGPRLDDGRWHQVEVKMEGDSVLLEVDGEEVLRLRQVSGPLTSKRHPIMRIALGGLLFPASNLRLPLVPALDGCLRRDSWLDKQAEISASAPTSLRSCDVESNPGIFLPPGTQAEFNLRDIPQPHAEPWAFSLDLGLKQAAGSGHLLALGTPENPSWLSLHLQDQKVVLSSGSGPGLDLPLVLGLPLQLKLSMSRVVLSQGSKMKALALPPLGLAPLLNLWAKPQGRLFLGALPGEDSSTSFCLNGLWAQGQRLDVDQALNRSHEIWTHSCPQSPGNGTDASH

SHBG or CBG serum levels = details: in vivo; cited from earlier work
[3] = clinical Phase Ia study: pharmacokinetics of oral 8-PN; assay type: in vivo, women
Excerpt: The pharmacokinetic profile of 8-PN is characterized by a complete oral absorption, a low degree of metabolization (less than 60% of dose) and a high pre-systemic elimination (first-liver-pass excretion, about 55% of dose). The high and unexpected pre-systemic elimination leads to a collection of substantial dose parts in the bile fluid from which these dose parts are secreted into the duodenum when gastric signaling occurs with a meal uptake. Respective dose parts are then absorbed again and reach systemic circulation. Data were taken from the clinical Phase la study and represent two volunteers of the lowest dose group (50 mg 8-Prenylnaringenin).
Taking the total area under the curve as a measure for 8-Prenyinaringenin systemic availability, the percentage of the area under the second peak (generated by reabsorption of the pre-systemically eliminated and then biliary secreted dose parts) can be used to estimate those dose parts which undergo pre-systemic elimination after oral dosing. On an average of six women investigated this figure is 54±20%.
Re-increases in drug serum levels show re-absorption of dose parts collected in the bile fluid and subsequently secreted triggered by lunch.

CYP isoenzymes = assay: metabolism by CYP isoenzymes; assay type: in vitro ADME
[4] = pH-dependent solubility and in vitro dissolution of 8-PN; assay type: physicochemical
Excerpt: The solid oral modified release formulations of this invention show a pH-independent drug release in vitro. This is important as the pH varies considerably in the gastro-intestinal tract and continuous release should be achieved independent of the pH. In contrast to C21-progestins (MPA, CPA, DRSP), however, the solubility of 8-PN is pH-dependent. […] The low acid solubility property of 8-Prenylnaringenin results in vitro in slow drug dissolution at pH 1, whereas the dissolution is fast at higher pH-values such as pH 6.8. The resulting dissolution profiles are different at different pH-values. This problem is solved by the solid oral modified release formulation of this invention. […]

PR = molecular target: T2, PR (Homo sapiens, UniProt P06401); details: cited from earlier work
T2 sequence (P06401 1-933): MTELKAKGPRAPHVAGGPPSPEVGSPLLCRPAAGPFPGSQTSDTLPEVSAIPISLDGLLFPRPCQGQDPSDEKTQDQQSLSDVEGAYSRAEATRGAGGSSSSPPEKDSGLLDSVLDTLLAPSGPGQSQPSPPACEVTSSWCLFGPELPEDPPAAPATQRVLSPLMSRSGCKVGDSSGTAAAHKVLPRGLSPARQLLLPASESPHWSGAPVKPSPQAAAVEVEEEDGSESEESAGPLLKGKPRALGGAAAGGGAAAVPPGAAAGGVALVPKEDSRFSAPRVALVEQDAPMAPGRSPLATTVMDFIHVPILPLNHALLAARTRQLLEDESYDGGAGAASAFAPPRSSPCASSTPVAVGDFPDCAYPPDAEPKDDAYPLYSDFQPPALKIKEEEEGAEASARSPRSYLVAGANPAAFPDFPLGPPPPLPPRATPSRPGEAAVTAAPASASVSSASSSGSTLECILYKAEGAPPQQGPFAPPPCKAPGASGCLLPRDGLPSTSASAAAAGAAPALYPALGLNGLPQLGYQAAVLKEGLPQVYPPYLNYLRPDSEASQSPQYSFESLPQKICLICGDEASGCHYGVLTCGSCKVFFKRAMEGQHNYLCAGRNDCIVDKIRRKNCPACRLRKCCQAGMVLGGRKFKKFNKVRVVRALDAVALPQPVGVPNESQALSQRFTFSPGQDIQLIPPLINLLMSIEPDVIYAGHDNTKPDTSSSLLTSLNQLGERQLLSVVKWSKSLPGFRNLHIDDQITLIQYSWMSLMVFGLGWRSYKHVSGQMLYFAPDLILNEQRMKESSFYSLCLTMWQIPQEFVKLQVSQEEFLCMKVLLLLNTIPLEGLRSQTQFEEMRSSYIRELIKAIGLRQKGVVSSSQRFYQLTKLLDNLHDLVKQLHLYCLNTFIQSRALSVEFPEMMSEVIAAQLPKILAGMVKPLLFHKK

AR = molecular target: T3, AR (Homo sapiens, UniProt P10275); details: cited from earlier work
T3 sequence (P10275 1-920): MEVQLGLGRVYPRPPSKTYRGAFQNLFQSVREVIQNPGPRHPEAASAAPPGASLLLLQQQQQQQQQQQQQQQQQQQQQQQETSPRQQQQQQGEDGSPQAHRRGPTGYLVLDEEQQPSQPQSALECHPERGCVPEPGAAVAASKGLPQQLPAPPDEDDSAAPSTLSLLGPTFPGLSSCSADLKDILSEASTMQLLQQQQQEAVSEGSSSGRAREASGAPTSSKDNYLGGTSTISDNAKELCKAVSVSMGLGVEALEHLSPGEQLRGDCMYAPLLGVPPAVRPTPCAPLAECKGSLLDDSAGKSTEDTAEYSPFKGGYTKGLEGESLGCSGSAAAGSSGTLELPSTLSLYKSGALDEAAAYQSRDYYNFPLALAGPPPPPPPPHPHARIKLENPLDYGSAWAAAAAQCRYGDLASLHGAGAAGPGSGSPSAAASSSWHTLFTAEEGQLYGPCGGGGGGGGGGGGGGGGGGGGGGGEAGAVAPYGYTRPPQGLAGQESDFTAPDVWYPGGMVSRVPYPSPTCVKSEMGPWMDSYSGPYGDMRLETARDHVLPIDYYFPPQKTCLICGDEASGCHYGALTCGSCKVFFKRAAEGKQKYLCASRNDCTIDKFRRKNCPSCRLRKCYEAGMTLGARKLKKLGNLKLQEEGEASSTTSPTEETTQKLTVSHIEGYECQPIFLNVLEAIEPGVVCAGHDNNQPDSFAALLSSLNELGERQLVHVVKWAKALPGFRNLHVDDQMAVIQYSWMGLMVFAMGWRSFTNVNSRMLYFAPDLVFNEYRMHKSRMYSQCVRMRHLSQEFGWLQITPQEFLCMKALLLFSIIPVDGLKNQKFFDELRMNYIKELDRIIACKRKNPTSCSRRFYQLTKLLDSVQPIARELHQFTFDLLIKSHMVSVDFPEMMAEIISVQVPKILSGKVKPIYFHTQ

GR = molecular target: T4, GR (Homo sapiens, UniProt P04150); details: cited from earlier work
T4 sequence (P04150 1-777): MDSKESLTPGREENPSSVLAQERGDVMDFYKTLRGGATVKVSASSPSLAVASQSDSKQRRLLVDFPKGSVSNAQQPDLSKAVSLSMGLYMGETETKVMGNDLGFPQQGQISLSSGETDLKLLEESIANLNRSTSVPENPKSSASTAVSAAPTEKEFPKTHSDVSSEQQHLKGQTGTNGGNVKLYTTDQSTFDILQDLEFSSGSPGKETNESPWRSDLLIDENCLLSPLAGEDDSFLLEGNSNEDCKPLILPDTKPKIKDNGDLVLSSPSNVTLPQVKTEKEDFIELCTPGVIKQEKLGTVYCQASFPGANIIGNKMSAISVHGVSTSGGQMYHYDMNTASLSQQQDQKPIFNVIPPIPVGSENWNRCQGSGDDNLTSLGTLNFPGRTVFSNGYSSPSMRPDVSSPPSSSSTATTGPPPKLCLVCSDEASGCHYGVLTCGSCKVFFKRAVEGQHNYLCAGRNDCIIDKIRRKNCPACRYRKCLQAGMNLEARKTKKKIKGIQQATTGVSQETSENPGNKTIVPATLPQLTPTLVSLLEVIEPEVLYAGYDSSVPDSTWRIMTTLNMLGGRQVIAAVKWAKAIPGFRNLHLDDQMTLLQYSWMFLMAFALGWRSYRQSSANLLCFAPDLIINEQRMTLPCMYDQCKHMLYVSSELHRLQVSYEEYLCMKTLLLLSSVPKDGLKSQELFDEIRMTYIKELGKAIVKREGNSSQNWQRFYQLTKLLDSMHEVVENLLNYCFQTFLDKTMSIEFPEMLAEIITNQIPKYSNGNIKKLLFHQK

estrogen receptor = details: cited from earlier work
[5] = cited from earlier work; remark: listed apart in the source
[6] = 3 mg oral, daily repeated administration
[7] = single oral intake of 3 mg DRSP

Compound: C[C@]12CCC(=O)C=C1[C@@H]1C[C@@H]1[C@H]1[C@@H]3[C@@H]4C[C@@H]4[C@@]4(CCC(=O)O4)[C@@]3(C)CC[C@@H]12 [DRSP, Drospirenone]
- AUC [1, 6]: about 920 ng×h/ml
- maximum serum level [1, 6]: about 80 ng/ml
- apparent volume of distribution ([1]; in vivo): 4 L/kg
- disposition half-life ([1]; in vivo): 31 h
- metabolism ([1]; mainly by CYP3A4): only slightly metabolized
- oral absorption ([1]; oral): complete
- AUC0-24h [1, 7]: 288 ng·h/mL
- maximum serum levels [1, 7]: 37 ng/mL
- time at which maximum serum levels were reached [1, 7]: 1.7 h
- stability (opening of carbolactone ring to the inactive acid) [2]: sensitive to low pH-values
- binding to SHBG (SHBG): does not bind
- suppression of EE induced SHBG or CBG serum levels (SHBG or CBG serum levels): does not suppress

Compound: CC(C)=CCc1c(O)cc(O)c2c1OC(c1ccc(O)cc1)CC2=O (stereo not shown) [Example 8-PN, 5,7-Dihydroxy-2-(4-hydroxyphenyl)-8-(3-methylbut-2-enyl)-chroman-4-on]
- degree of metabolization ([3]; oral): less than 60 % of dose
- oral absorption ([3]; oral): complete
- pre-systemic elimination (first-liver-pass excretion) ([3]; oral): about 55 % of dose
- CV of mean AUC ([3]; oral dose 250 mg): 42%
- CV of mean AUC ([3]; oral dose 750 mg): 29%
- percentage of the area under the second peak of total AUC (dose parts undergoing pre-systemic elimination) ([3]; oral, average of six women): 54±20%
- metabolism by CYP isoenzymes (CYP isoenzymes): surprisingly low extent of metabolism; also recorded: high metabolic stability
- metabolism by CYP isoenzymes (CYP isoenzymes; listed as 8-Prenylnaringenin): high metabolic stability
- solubility ([4]; higher at higher pH-values, low at lower pH-values): pH-dependent
- drug dissolution in vitro ([4]; pH 1): slow
- drug dissolution in vitro ([4]; pH 6.8): fast
- binding or activation of the PR (PR): devoid of binding or activation
- binding or activation of the AR (AR): devoid of binding or activation
- binding or activation of the GR (GR): devoid of binding or activation
- anti-estogenic activity (estrogen receptor): without any anti-estogenic activity

Compound: C[C@]12CC[C@@H]3c4ccc(O)cc4CC[C@H]3[C@@H]1CC[C@@H]2O [Example E2, 17β-estradiol]
- coefficient of variation (CV) of the mean AUC ([5]; oral 2 mg E2, N=14): 127%
- coefficient of variation (CV) of the mean AUC ([5]; oral 4 mg E2, N=14): 91%
- coefficient of variation (CV) of the mean AUC ([5]; oral 8 mg E2, N=14): 70%
- oral bioavailability ([5]; oral): 1-3 % of dose
